Laboratory results: patent US20110039721A1, “METHOD FOR PREDICTION ABOUT CARCINOGENICITY OF SUBSTANCE IN RODENT” (Chemicals Evaluation and Research Institute, priority 2007, published 2011)

Columns and labels:
rodent = details: classification of the substance (C+/C−); cited from earlier work
liver = details: classification of the substance (Cr+/Cr−); cited from earlier work
[1] = classification of the substance (M+/M−); cited from earlier work
[2] = test system: mRNA expressed from the genes (A) to (D) in rat liver; test: Behavior of genes (mRNA expression level, oligo-DNA microarray) in rat liver after 28-day oral administration; format: in vivo
Procedure, shortened: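 Oral gavage, once daily × 28 days; male F344 SPF rats, 5 wk, n=4/group; vehicle controls given equal solvent volume. Liver excised day 28, total RNA purified. Significance: ≥1.5× or ≤1/1.5 of vehicle, direction concordant with other carcinogens.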

[3] = gene group (A), Unigene No. Rn.167075
[4] = gene group (C), Unigene No. Rn.120914

CC1CCC(C(C)C)C(O)C1 (racemic) [TS034, DL-Menthol]
−: Behavior of gene caused by administration of chemical substance, Gene No. 4846 ([2]; gene group (A), Unigene No. Rn.144554) | Behavior of gene caused by administration of chemical substance, Gene No. 4218 [2, 3] | Behavior of gene caused by administration of chemical substance, Gene No. 6182 ([2]; gene group (A), Unigene No. Rn.5834) | Behavior of gene caused by administration of chemical substance, Gene No. 5600 ([2]; gene group (A), Unigene No. Rn.9836) | Behavior of gene caused by administration of chemical substance, Gene No. 725 ([2]; gene group (C), Unigene No. Rn.108075) | Behavior of gene caused by administration of chemical substance, Gene No. 1163 ([2]; gene group (C), Unigene No. Rn.11766) | Behavior of gene caused by administration of chemical substance, Gene No. 4973 ([2]; gene group (C), Unigene No. Rn.118529) | Behavior of gene caused by administration of chemical substance, Gene No. 4095 ([2]; gene group (C), Unigene No. Rn.119024) | Behavior of gene caused by administration of chemical substance, Gene No. 1334 [2, 4] | Behavior of gene caused by administration of chemical substance, Gene No. 6620 [2, 4] | Behavior of gene caused by administration of chemical substance, Gene No. 5878 ([2]; gene group (C), Unigene No. Rn.143213) | Behavior of gene caused by administration of chemical substance, Gene No. 1131 ([2]; gene group (C), Unigene No. Rn.144946) | Behavior of gene caused by administration of chemical substance, Gene No. 1562 ([2]; gene group (C), Unigene No. Rn.14744) | Behavior of gene caused by administration of chemical substance, Gene No. 1741 ([2]; gene group (C), Unigene No. Rn.1647) | Behavior of gene caused by administration of chemical substance, Gene No. 893 ([2]; gene group (C), Unigene No. Rn.164817) | Behavior of gene caused by administration of chemical substance, Gene No. 6026 ([2]; gene group (C), Unigene No. Rn.167685) | Behavior of gene caused by administration of chemical substance, Gene No. 1993 ([2]; gene group (C), Unigene No. Rn.18728) | Behavior of gene caused by administration of chemical substance, Gene No. 813 ([2]; gene group (C), Unigene No. Rn.201760) | Behavior of gene caused by administration of chemical substance, Gene No. 2494 ([2]; gene group (C), Unigene No. Rn.23969) | Behavior of gene caused by administration of chemical substance, Gene No. 2546 ([2]; gene group (C), Unigene No. Rn.24561) | Behavior of gene caused by administration of chemical substance, Gene No. 3776 ([2]; gene group (C), Unigene No. Rn.43232) | Behavior of gene caused by administration of chemical substance, Gene No. 3929 ([2]; gene group (C), Unigene No. Rn.4620) | Behavior of gene caused by administration of chemical substance, Gene No. 1119 ([2]; gene group (C), Unigene No. Rn.9757) | Behavior of gene caused by administration of chemical substance, Gene No. 6742 ([2]; gene group (C), Unigene No. Rn.9779) | Behavior of gene caused by administration of chemical substance, Gene No. 5634 ([2]; gene group (C), Unigene No. Rn.9862) | Behavior of gene caused by administration of chemical substance, Gene No. 5726 ([2]; gene group (D), Unigene No. Rn.9939)
M−: Mutagenicity by Ames test [1]
+: Behavior of gene caused by administration of chemical substance, Gene No. 2026 [2, 3] | Behavior of gene caused by administration of chemical substance, Gene No. 1494 ([2]; gene group (B), Unigene No. Rn.1430) | Behavior of gene caused by administration of chemical substance, Gene No. 2045 ([2]; gene group (B), Unigene No. Rn.19329) | Behavior of gene caused by administration of chemical substance, Gene No. 2203 ([2]; gene group (B), Unigene No. Rn.21240) | Behavior of gene caused by administration of chemical substance, Gene No. 533 ([2]; gene group (C), Unigene No. Rn.106184) | Behavior of gene caused by administration of chemical substance, Gene No. 6303 ([2]; gene group (C), Unigene No. Rn.123063) | Behavior of gene caused by administration of chemical substance, Gene No. 154 ([2]; gene group (C), Unigene No. Rn.185941)
Cr−: Liver carcinogenicity (liver)
C−: Carcinogenicity (rodent)
